Reference: patent publication US4238491A (priority 1977, dated 1980)
Where two headings read alike, the source gives them in different places.

Tests used:
[1] = Effect on body temperature; assay type: in vivo, mouse (dd-strain); conditions: 25 mg/kg oral
central nervous system [2] = conditions: in vivo; cited from earlier work
central nervous system [3] = experiment: Behavior-pharmacological studies, central nervous system depressing effect; parameters: species or system mouse (dd-strain); conditions: mouse, in vivo
From the text: Effects on central nervous system were studied as follows: […]

rat = conditions: oral
rats [4] = experiment: in vivo; assay type: in vivo, rat (SD (SPF))
Procedure: (§1) All the rats were observed daily and general symptoms noted. Weight was measured daily, average food-intake once every three days, and average water-intake once every two days.

in vivo = assay type: in vivo, rat (SD (SPF)); conditions: rat, in vivo; oral sub-acute, rats; read-out: ineffective dose
Procedure: as §1

rats [5] = system: rats
Procedure: The rate were bred in individual cages under the following conditions: temperature, 23°±2° C.; relative humidity, 55±5%; free taking of solid food (CE-2, CLEA Japan, Inc.) and tap water.
Volume of the medicine solution for one administration was dicided to be 1 ml per 100 g of weight, and the dose was administered once a day, 6 times a week over 5 weeks. The control group received the same volume of 0.2% carboxymethyl cellulose solution.

serotonin in Brain = conditions: in vivo; cited from earlier work

Procedure for hexobarbital hypnosis: Period of induced sleeping was measured with righting reflex as a parameter.

Compound: COC(=O)[C@H]1[C@H]2C[C@@H]3c4[nH]c5cc(OC)ccc5c4CCN3C[C@H]2C[C@@H](O)[C@@H]1OC [MR, methylreserpate]
- body temperature (rectal) ([1]; 1 hour after): 36.6±0.2 °C
- body temperature (rectal) ([1]; 2 hours after): 36.2± 0.2 °C
- body temperature (rectal) ([1]; 3 hours after): 35.6±0.1 °C
- effect on body temperature ([1]; 3 hours after): a slight decrease in the temperature
- inhibitory action of central nervous system (central nervous system [2]): less than that of RSP
- Hypnotic Time (hexobarbital hypnosis; 25 mg/kg oral): 159 ± 7 s
- Sleeping Time (hexobarbital hypnosis; 25 mg/kg oral): 34.2 ± 6.7 min
- Hypnotic Time (hexobarbital hypnosis; mouse, in vivo): 144 ± 7 s
- Sleeping Time (hexobarbital hypnosis; mouse, in vivo): 32.9 ± 4.4 min
- influence on time to induce sleep and sleeping period (hexobarbital hypnosis; mouse, in vivo): did not influence
- central nervous system depressing effect compared with RSP (central nervous system [3]): weaker than that of RSP
- LD50 as multiple of clinical dosage of RCN (rat): about 24,000 times
- side effects (rats [4]; only at the higher doses): blepharoptosis, leukopenia, increase of urine volume, atrophy of hematopoietic organs, cortial hypertrophy of adrenal and degeneration of liver cells (in dead rats)
- food-intake (rats [4]; rat, in vivo): No difference
- general symptoms (rats [4]; rat, in vivo): blepharoptosis, roughening of fur and dirtiness of public region
- general symptoms, additional (rats [4]; rat, in vivo): reduction of body weight, bloody cojunctival discharge, and a decrease of limb-skin temperature
- NOAEL (in vivo): 12.5 mg/kg
- Eosino. (rats [5]; 25.0 mg/kg, day 10): 1.5±0.3%
- Lymph. (rats [5]; 25.0 mg/kg, day 10): 81.8±2.0%
- Mono. (rats [5]; 25.0 mg/kg, day 10): 2.1±0.4%
- Neutro. (rats [5]; 25.0 mg/kg, day 10): 14.6±1.6%
- Platelet (rats [5]; 25.0 mg/kg, day 10): 853±32.6 ×10^3 /mm^3
- Eosino. (rats [5]; 25.0 mg/kg, day 20): 1.8±0.4%
- Lymph. (rats [5]; 25.0 mg/kg, day 20): 74.8±2.1%
- Mono. (rats [5]; 25.0 mg/kg, day 20): 1.2±0.3%
- Neutro. (rats [5]; 25.0 mg/kg, day 20): 22.8±2.2%
- Eosino. (rats [5]; 25.0 mg/kg, day 30): 1.4±0.6%
- Lymph. (rats [5]; 25.0 mg/kg, day 30): 78.0±2.0%
- Mono. (rats [5]; 25.0 mg/kg, day 30): 1.5±0.5%
- Neutro. (rats [5]; 25.0 mg/kg, day 30): 19.2±1.9%
- Platelet (rats [5]; 25.0 mg/kg, day 30): 658±26.8 ×10^3 /mm^3
- Eosino. (rats [5]; 50.0 mg/kg, day 10): 1.8±0.4%
- Lymph. (rats [5]; 50.0 mg/kg, day 10): 82.3±1.1%
- Mono. (rats [5]; 50.0 mg/kg, day 10): 2.4±0.3%
- Neutro. (rats [5]; 50.0 mg/kg, day 10): 13.5±0.8%
- Platelet (rats [5]; 50.0 mg/kg, day 10): 861±33.5 ×10^3 /mm^3
- Eosino. (rats [5]; 50.0 mg/kg, day 20): 1.3±0.4%
- Lymph. (rats [5]; 50.0 mg/kg, day 20): 75.0±2.3%
- Mono. (rats [5]; 50.0 mg/kg, day 20): 1.6±0.3%
- Neutro. (rats [5]; 50.0 mg/kg, day 20): 22.1±2.2%
- Eosino. (rats [5]; 50.0 mg/kg, day 30): 2.6±0.5%
- Lymph. (rats [5]; 50.0 mg/kg, day 30): 78.7±1.8%
- Mono. (rats [5]; 50.0 mg/kg, day 30): 1.2±0.2%
- Neutro. (rats [5]; 50.0 mg/kg, day 30): 17.5±1.8%
- Platelet (rats [5]; 50.0 mg/kg, day 30): 656±36.7 ×10^3 /mm^3
- Eosino. (rats [5]; 100.0 mg/kg, day 10): 2.3±0.5%
- Lymph. (rats [5]; 100.0 mg/kg, day 10): 77.1±2.2%
- Mono. (rats [5]; 100.0 mg/kg, day 10): 2.3±0.3%
- Neutro. (rats [5]; 100.0 mg/kg, day 10): 18.3±2.3%
- Platelet (rats [5]; 100.0 mg/kg, day 10): 782±31.2 ×10^3 /mm^3
- Eosino. (rats [5]; 100.0 mg/kg, day 20): 1.2±0.3%
- Lymph. (rats [5]; 100.0 mg/kg, day 20): 69.6±3.0%
- Mono. (rats [5]; 100.0 mg/kg, day 20): 1.6±0.3%
- Neutro. (rats [5]; 100.0 mg/kg, day 20): 27.6±2.9%
- Eosino. (rats [5]; 100.0 mg/kg, day 30): 1.4±0.4%
- Lymph. (rats [5]; 100.0 mg/kg, day 30): 75.2±1.6%
- Mono. (rats [5]; 100.0 mg/kg, day 30): 1.5±0.3%
- Neutro. (rats [5]; 100.0 mg/kg, day 30): 21.9±1.9%
- Platelet (rats [5]; 100.0 mg/kg, day 30): 696±13.9 ×10^3 /mm^3
- Eosino. (rats [5]; 200.0 mg/kg, day 10, 4 rats): 0.8±0.5%
- Lymph. (rats [5]; 200.0 mg/kg, day 10, 4 rats): 36.3±12%
- Mono. (rats [5]; 200.0 mg/kg, day 10, 4 rats): 1.3±0.5%
- Neutro. (rats [5]; 200.0 mg/kg, day 10, 4 rats): 61.8±12%
- Platelet (rats [5]; 200.0 mg/kg, day 10, 4 rats): 592±54.7 ×10^3 /mm^3
- serotonin in Brain (serotonin in Brain): no decrease of serotonin in Brain
